The source of these data is PMC9138959 (Biomedicines, 2022).

One series relates to MERS-CoV. In words: microbe, parasite or virus in culture. As to conditions: Middle East respiratory syndrome-related coronavirus, Vero, 24 h, read-out: IC50, inhibition of MERS-CoV infection. The class given is cell-based.
A short description of another series: in vitro. As to conditions: African green monkey.
The subject of another series is SARS-CoV-2. As to the kind of experiment: microbe, parasite or virus in culture. Format: cell-based. To be noted: Severe acute respiratory syndrome coronavirus 2, Vero, 24 h; read-out: IC50, inhibition of SARS-CoV-2 infection.
In another series the target is SARS-CoV-2 Mpro (Severe acute respiratory syndrome coronavirus 2, UniProt P0DTD1). As to the kind of experiment: SARS-CoV-2 Mpro activity inhibition assay (FRET peptide). The class given is biochemical. As to conditions: MBP-tagged Mpro, FRET peptide substrate, 30 min.
A further series deals with SARS-CoV-2 PLpro (Severe acute respiratory syndrome coronavirus 2, UniProt P0DTD1). In words: SARS-CoV-2 PLpro activity inhibition assay. To be noted: 25 μM compound. The class given is biochemical. The procedure: The fluorescence intensity was measured at 360 nm/460 nm using a Synergy H1 microplate reader (Bio-Tek). GRL061 (BPS Bioscience) was used as a positive control.
To elucidate the mode of action of PGG and PAC, the effect of those compounds on the activity of the viral protease, Mpro, was examined using SARS-CoV-2 Mpro activity assay kits.

The next series deals with SARS-CoV. As to the kind of experiment: microbe, parasite or virus in culture. The class given is cell-based. As to conditions: Severe acute respiratory syndrome coronavirus, Vero, 24 h, read-out: IC50, inhibition of SARS-CoV infection.
Another series concerns the target T1, SARS-CoV-2 RdRp (Severe acute respiratory syndrome coronavirus 2, UniProt P0DTD1).
T1 construct: the RdRp expression plasmid, pCI-SARS-CoV-2 nsp12-N; expressed in transfected cells; host or cells: HEK293T
As to the kind of experiment: cell-based. To be noted: HEK293T cells, 18 h treatment; read-out: IC50, SARS-CoV-2 RdRp activity (NLuc/FLuc).

Several values for one entry are separate records, joined by “and”; a condition that tells them apart may be missing. Equal entries are not always repeated. Entries after “also recorded” stand apart in the source; their conditions may differ.

Regarding `Oc1cc(O)c2c(c1)OC(c1ccc(O)c(O)c1)C(OC1(c3ccc(O)c(O)c3)Oc3cc(O)cc(O)c3C(O)C1O)C2` (centres unmarked) [PAC, proanthocyanidin], the IC50 in the series on MERS-CoV was 4.95 ± 0.181 µM; with SARS-CoV-2, 25.9 ± 0.81 µM; at SARS-CoV-2 Mpro, 25 to 26 µM and 26 µM; with SARS-CoV it was 15.2 ± 0.28 µM; on SARS-CoV-2 RdRp, 21 ± 1.2 µM. This compound yielded a CC50 in the series “in vitro” above 50 µM. The “Cytotoxicity or inhibition of host transcription (FLuc internal control levels)” value in the series on HEK293T cells was “without cytotoxicity or the inhibition of host transcription”. Further, the “Inhibition of SARS-CoV-2 PLpro activity” value on SARS-CoV-2 PLpro was “did not inhibit; also recorded: did not affect”.

Take `O=C(OC[C@H]1O[C@@H](OC(=O)c2cc(O)c(O)c(O)c2)[C@H](OC(=O)c2cc(O)c(O)c(O)c2)[C@@H](OC(=O)c2cc(O)c(O)c(O)c2)[C@@H]1OC(=O)c1cc(O)c(O)c(O)c1)c1cc(O)c(O)c(O)c1` [PGG, 1,2,3,4,6-penta-O-galloyl-beta-D-glucose]: the IC50 is 3.47 ± 0.231 µM with MERS-CoV, 15 ± 0.75 µM with SARS-CoV-2 and 15.7 ± 1.02 µM with SARS-CoV. For the same compound, in the series “in vitro”, the CC50 was above 50 µM. In the series on HEK293T cells, the “Cytotoxicity or inhibition of host transcription (FLuc internal control levels)” value is reported as “without cytotoxicity or the inhibition of host transcription”. In addition, the “Inhibition of SARS-CoV-2 PLpro activity” value on SARS-CoV-2 PLpro is recorded as “did not inhibit; also recorded: did not affect”.
